Experimental data published in patent US12201640B2, “19-nor C3,3-disubstituted C21-n-pyrazolyl steroids and methods of use thereof” (Sage Therapeutics, Inc., priority 2013, dated 2025).

What was measured:
PTZ-treated mice = assay: Acute PTZ (pentylenetetrazol-induced seizure) assay in mice; type: in vivo, mouse; conditions: latency to tonic seizures
Procedure: The anticonvulsant effect of test compounds were assessed in the pentylenetetazol-induced seizure assay in mice similar to methods described in Giardina & Gasior (2009) Curr Protoc Pharmacol., Chapter 5. Male CD-1 mice were housed in groups of five under controlled conditions (temperature of 22±2° C. and 12:12 light-dark cycle, lights on at 8:00 am) and water and food were available ad libitum. The mice were housed for 1 week prior to behavioral testing, at which time they weighed 25-35 g. Pentylenetetrazol (PTZ, Sigma) was dissolved in sterile 0.9% saline at a concentration of 12 mg/mL concentration for subcutaneous administration. Test compounds were formulated and administered via oral gavage or intraperitoneal injection at a predetermined time-point (typically 30 or 60 minutes) prior to PTZ injection. All solutions were made fresh and were given in a volume of 10 ml/kg body weight.
Mice were acclimated to the test room for at least 30 min before compound administration. Mice were randomized into at least four test groups (vehicle and at least three doses of the test compound) with 10 mice per group. […] Following the drug pretreatment time the mice were injected s.c. with PTZ (120 mg/kg). Immediately following the PTZ injection, mice were individually placed into observation chambers (25×15×15 cm) and a three-channel timer was started. Each mouse was continuously observed for 30 min and the following behaviors were recorded by observers blinded to the treatments: 1) latency to clonic convulsions that persist for 3 sec and followed by an absence of righting reflex 2) latency to tonic convulsions, characterized by the rigid extension of all four limbs that exceeded a 90 degree angle with the body 3) latency to death 4) number of clonic and tonic convulsions. Data are presented as mean±S.E.M and one-way analysis of variance with Dunnett's or Bonferroni's post-hoc test was used to detect significant differences in latency and number between the vehicle and dose group. p values<0.05 were regarded as statistically significant.

male Sprague Dawley rats = assay: Loss of righting reflex in rats; type: in vivo; conditions: Rat IV, 5 mpk
Procedure: Loss of Righting Reflex in Rats
The plasma pharmacokinetics and a qualitative assessment of sedation were obtained in male
Sprague Dawley rats according to the following procedure. Rats were dosed by intravenous bolus dose (60 seconds) via the foot dorsal vein at doses ranging from 5 to 15 mg/kg in an appropriate vehicle. In order to assess sedation, rats were gently restrained by hand to a lateral position for dose administration. […] If the animal was unable to return to an upright position, the time was recorded as the onset of loss of righting reflex (LRR). […] Sluggish or incomplete righting twice consecutively within a 30 second interval qualifies as a loss of righting reflex. After onset of LRR, animals were assessed every 5 minutes in the same manner. Recovery of righting reflex is defined as the ability of a rat to right itself completely within 20 seconds of being placed in dorsal recumbency. The duration of LRR is defined as the time interval between LRR and the return of righting reflex.

Compound | Anticonvulsive Effect Dose (minimal effective anticonvulsant dose) (PTZ-treated mice; PO) | Duration of Rat LRR (male Sprague Dawley rats) | Anticonvulsive Effect Dose (minimal effective anticonvulsant dose) (PTZ-treated mice; IP)
C[C@@]1(O)CC[C@H]2[C@H](CC[C@@H]3[C@@H]2CC[C@]2(C)[C@@H](C(=O)Cn4cc(C#N)cn4)CC[C@@H]32)C1 [SA-4] | A (PO) (<3 mpk) | C (>60 min) | 
Cc1cnn(CC(=O)[C@H]2CC[C@H]3[C@@H]4CC[C@@H]5C[C@](C)(O)CC[C@@H]5[C@H]4CC[C@]23C)c1 [SA-6] |  | A (<15 min) | 
C[C@@]1(O)CC[C@H]2[C@H](CC[C@@H]3[C@@H]2CC[C@]2(C)[C@@H](C(=O)Cn4cccn4)CC[C@@H]32)C1 [SA-13] |  |  | B (IP) (≥3 mpk)
